Assay results taken from US20230406883A1, “COMPOUNDS AND THEIR USE IN TREATMENT OF TACHYKININ RECEPTOR MEDIATED DISORDERS” (Embark Biotech ApS, priority 2020, published 2023).
Where “and” joins values, the source holds several entries; their conditions need not be identical. Equal entries are not always repeated. Where two headings read alike, the source gives them in different places. Numbered stars: 1 amine (or outer) side, 2 acyl side, 3 side chain; on linkers, the order of the positions; unused ones are H or OH. Square brackets hold non-standard residues; d marks the D form. Peptide text beside a SMILES is read from it. * marks the point of attachment. C18 diacid = O=C(O)CCCCCCCCCCCCCCCCC(=O)*; Phe(4-F) = N[C@@H](Cc1ccc(F)cc1)C(=O)O; γGlu = O=C(O)[C@H](CCC(=O)[*:2])N[*:1]; NMeL = CN[C@@H](CC(C)C)C(=O)O; hSer = N[C@@H](CCO)C(=O)O; Nle = CCCC[C@H](N)C(=O)O; AEEA = NCCOCCOCC(=O)O; Aib = CC(C)(N)C(=O)O

What was measured:
[1] = biological target: T1, hNK2R (Homo sapiens, UniProt P21452); assay: 3H-NKA competitive binding on transfected COS-7 cells; conditions: competition with 3H-NKA, 4 h at 4 C
T1 construct: host or cells: COS-7
T1 sequence (P21452 1-398): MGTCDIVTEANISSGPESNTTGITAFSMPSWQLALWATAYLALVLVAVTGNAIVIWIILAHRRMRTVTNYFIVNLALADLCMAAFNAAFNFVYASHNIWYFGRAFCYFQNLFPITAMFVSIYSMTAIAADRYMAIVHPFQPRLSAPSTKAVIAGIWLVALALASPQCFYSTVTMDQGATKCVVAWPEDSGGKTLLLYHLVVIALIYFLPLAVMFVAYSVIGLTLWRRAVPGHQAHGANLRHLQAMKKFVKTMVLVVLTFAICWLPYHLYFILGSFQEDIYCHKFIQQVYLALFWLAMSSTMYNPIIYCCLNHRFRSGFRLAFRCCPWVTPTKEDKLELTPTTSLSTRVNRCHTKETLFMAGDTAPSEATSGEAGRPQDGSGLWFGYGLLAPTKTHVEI
Description: (§1) Assays were carried out using COS-7 cells transiently transfected by calcium phosphate transfection with a vector pcDNA3.1(+) encoding one of the indicated receptors (Genscript). Briefly, DNA mixed with CaCl2 (2 M) and TE-buffer (10 mM Tris-HCl, 1 mM EDTA, pH 7.5) was dropwise added to 2×HBS (50 mM HEPES, 280 mM NaCl, 1.5 mM NaH2PO4, pH 7.2) and incubated for 45 min at room temperature (22±2° C.). The mixture and a final concentration of 100 μM Chloroquine were added to the cells and left to incubate for 5 hours at 37° C. under standard cell culture conditions (10% CO2) before changing medium to fresh maintenance medium.
The ^3H-NKA binding assay measures peptide-receptor binding by a competitive principle of receptor binding between radioactively labelled (3H) NKA (tracer) and synthesized peptide ligands on live cells expressing the receptor of interest. Assay solutions used: TKR buffer (50 mM Tris/HCl pH 7.5, 5 mM MnCl2, and 150 mM NaCl), wash buffer (TKR buffer+0.2% w/v OvAlb), binding buffer (wash buffer+0.1 mg/ml Bacitracin), and tracer solution (binding buffer+˜15000 cpm/well ^3H-tracer). The assay was performed on ice the day after transfection.
Briefly, maintenance medium was aspirated, and plates were washed ×1 in cold wash buffer before adding 100 μl cold binding buffer and placing at 4° C. to let plates cool. The cold plates were added indicated peptides (ligand) immediately followed by addition of cold tracer solution (˜15000 cpm/well). Plates were immediately moved to 4° C. and incubated for 4 hours. After incubation, binding was stopped by wash ×2 with cold wash buffer before adding 225 μl Ultima Gold XR. Plates were shaken at medium speed for approximately 30 min and left overnight at room temperature before counting the plates in a MicroBeta plate counter (Perkin Elmer).

[2] = biological target: T1, hNK2R; assay: Hithunter cAMP assay (Gs-coupling) in transfected COS-7 cells; format: cell-based
Description: as §1, with “As a secondary measure of agonist-induced G-protein coupled receptor (GPCR) activation cyclin adenosine monophosphate (cAMP) was measured by the Hithunter cAMP-assay from DiscoverX. Assays” for “Assays”
The cAMP-assay takes advantage of the tachykinin receptors' ability to induce production of the cAMP second messenger upon agonist (ligand) binding on receptor expressing cells. Production of cAMP stems from receptor coupling to Gs-protein although coupling to Gq-protein (IP3-production) is considered the primary signalling mechanism by tachykinin receptors.
The assay was performed the day after transfection. Briefly, maintenance medium was aspirated, and plates were washed ×1 in HBSS before adding assay buffer (HBSS+1 mM IBMX), pre-incubated for 30 min at 37° C. followed by 15 min incubation with agonist (ligand) at 37° C. After incubation, plates were subjected to cell lysis and anti-cAMP-antibody incubation as described by manufacturer. Luminescence was measured with EnVision Multimode Plate Reader from Perkin Elmer.

[3] = biological target: T2, hNK3R (Homo sapiens, UniProt P29371); assay: IP3 assay (inositol trisphosphate, 3H-myoinositol) in transiently transfected COS-7 cells; format: cell-based; conditions: for EC50: 0.2% ovalbumin buffer, read-out: hNK3, IP3 EC50
T2 construct: host or cells: COS-7
T2 sequence (P29371 1-465): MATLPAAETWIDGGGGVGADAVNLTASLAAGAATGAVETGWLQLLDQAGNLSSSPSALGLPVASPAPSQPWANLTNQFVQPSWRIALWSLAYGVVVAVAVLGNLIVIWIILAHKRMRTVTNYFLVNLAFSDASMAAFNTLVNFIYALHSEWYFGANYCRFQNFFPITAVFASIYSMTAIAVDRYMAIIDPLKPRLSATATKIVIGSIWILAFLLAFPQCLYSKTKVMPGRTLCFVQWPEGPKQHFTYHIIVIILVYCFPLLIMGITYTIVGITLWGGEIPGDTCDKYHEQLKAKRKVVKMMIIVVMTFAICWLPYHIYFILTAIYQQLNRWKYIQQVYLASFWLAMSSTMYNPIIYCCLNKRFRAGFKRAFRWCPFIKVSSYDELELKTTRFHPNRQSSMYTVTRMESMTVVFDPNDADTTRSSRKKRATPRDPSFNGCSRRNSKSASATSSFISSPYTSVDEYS
In short: (§2)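 COS-7 cells were transiently transfected with receptor plasmid and labelled with ³H-myo-inositol. Cells were lysed in formic acid, and ³H-inositol phosphates were captured on SPA YSI beads and counted.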

[4] = biological target: T3, hNK1R (Homo sapiens, UniProt P25103); assay: as above; format: cell-based; conditions: for EC50: 0.2% ovalbumin buffer
T3 construct: host or cells: COS-7
T3 sequence (P25103 whole entry): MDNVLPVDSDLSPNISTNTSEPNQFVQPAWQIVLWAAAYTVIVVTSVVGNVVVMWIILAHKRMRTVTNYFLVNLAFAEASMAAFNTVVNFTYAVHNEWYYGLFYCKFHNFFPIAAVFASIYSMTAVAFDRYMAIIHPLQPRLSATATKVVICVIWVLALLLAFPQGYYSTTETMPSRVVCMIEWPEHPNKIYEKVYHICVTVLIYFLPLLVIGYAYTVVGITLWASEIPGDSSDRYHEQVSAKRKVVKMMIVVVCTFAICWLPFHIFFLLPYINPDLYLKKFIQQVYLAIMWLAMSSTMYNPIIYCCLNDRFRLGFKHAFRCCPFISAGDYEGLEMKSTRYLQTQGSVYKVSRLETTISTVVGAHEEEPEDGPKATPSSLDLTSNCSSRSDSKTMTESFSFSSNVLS
In short: as §2

[5] = biological target: T1, hNK2R; assay: as above; format: cell-based; conditions: for EC50: 0.2% ovalbumin buffer
In short: as §2

[6] = COS-7 cells, figure legends: percent of 10^-6 M NKA

| SMILES | EC50 [1] [µM] | EC50 ([2]; COS-7 cells) [µM] | hNK2R, cAMP Efficacy ([2]; COS-7 cells) [%] | EC50 ([3]; COS-7 cells) [µM] | hNK3, IP3 Efficacy [3, 6] | EC50 ([4]; COS-7 cells) | hNK1R, IP3 Efficacy [4, 6] | EC50 ([5]; COS-7 cells) [µM] | hNK2R, IP3 Efficacy [5, 6] | hNK2R, cAMP Efficacy [2] [%] | hNK3, IP3 Efficacy [3] [%] | hNK1R, IP3 Efficacy [4] [%] | hNK2R, IP3 Efficacy [5] [%] | Gs activation (cAMP), in words [2] |
| --- | --- | --- | --- | --- | --- | --- | --- | --- | --- | --- | --- | --- | --- | --- |
| CSCC[C@H](NC(=O)[C@H](CC(C)C)N(C)C(=O)CNC(=O)[C@@H](NC(=O)[C@H](Cc1ccc(O)cc1)NC(=O)[C@H](CCCCN)NC(=O)[C@H](CC(=O)O)NC(=O)COCCOCCNC(=O)COCCOCCNC(=O)CC[C@H](NC(=O)CCCCCCCCCCCCCCCCC(=O)O)C(=O)O)C(C)C)C(N)=O [compound 316, *Asp;Lys;Tyr;Val;Gly;NmLeu;Met;NH2] ({C18 diacid-γGlu-AEEA-AEEA}-DKYVG[NMeL]M-NH2) | 0.041 | 0.02 | 100 | ~0.16 | 50% | 0.02 µM | 100% | 0.012 | 120% | – | – | – | – | – |
| CCCC[C@H](NC(=O)[C@H](CC(C)C)NC(=O)C(C)(C)NC(=O)[C@@H](NC(=O)[C@H](Cc1ccc(O)cc1)NC(=O)[C@H](CCCCN)NC(=O)[C@H](CC(=O)O)NC(=O)COCCOCCNC(=O)COCCOCCNC(=O)CC[C@H](NC(=O)CCCCCCCCCCCCCCCCC(=O)O)C(=O)O)C(C)C)C(N)=O [compound 395, *Asp;Lys;Tyr;Val;Aib;Leu;Nle;NH2] ({C18 diacid-γGlu-AEEA-AEEA}-DKYV[Aib]L[Nle]-NH2) | ~0.104 | – | – | – | – | – | – | 0.009 | – | 0 | 0 | 0 | 68 | – |
| CCCC[C@H](NC(=O)[C@H](CC(C)C)N(C)C(=O)CNC(=O)[C@@H](NC(=O)[C@H](Cc1ccc(O)cc1)NC(=O)[C@H](CCCCN)NC(=O)[C@H](CCC(=O)O)NC(=O)COCCOCCNC(=O)COCCOCCNC(=O)CC[C@H](NC(=O)CCCCCCCCCCCCCCCCC(=O)O)C(=O)O)C(C)C)C(N)=O [compound 336, *Glu;Lys;Tyr;Val;Gly;NmLeu;Nle;NH2] ({C18 diacid-γGlu-AEEA-AEEA}-EKYVG[NMeL][Nle]-NH2) | 0.08 | – | 0 | ~3.8 | 10% and 0% | ~26 µM and ~27 µM | 30% and 25% | 0.004 | 80% and 75% | – | – | – | – | does not activate Gs |
| COCC[C@H](NC(=O)[C@H](CC(C)C)NC(=O)C(C)(C)NC(=O)[C@@H](NC(=O)[C@H](Cc1ccc(O)cc1)NC(=O)[C@H](CCCCN)NC(=O)[C@H](CC(=O)O)NC(=O)COCCOCCNC(=O)COCCOCCNC(=O)CC[C@H](NC(=O)CCCCCCCCCCCCCCCCC(=O)O)C(=O)O)C(C)C)C(N)=O [compound 394, *Asp;Lys;Tyr;Val;Aib;Leu;Metox;NH2] ({C18 diacid-γGlu-AEEA-AEEA}-DKYV[Aib]L[hSer](Me)-NH2) | ~0.108 | 0.306 | 100 | – | 0% | ~0.94 µM | 35% | 0.005 | 90% | – | – | – | – | – |
| CC(C)C[C@@H](C(=O)N[C@@H](Cc1ccccc1)C(N)=O)N(C)C(=O)CNC(=O)[C@@H](NC(=O)[C@H](Cc1ccc(O)cc1)NC(=O)[C@H](CCCCN)NC(=O)[C@H](CC(=O)O)NC(=O)COCCOCCNC(=O)COCCOCCNC(=O)CC[C@H](NC(=O)CCCCCCCCCCCCCCCCC(=O)O)C(=O)O)C(C)C [compound 353, *Asp;Lys;Tyr;Val;Gly;NmLeu;Phe;NH2] ({C18 diacid-γGlu-AEEA-AEEA}-DKYVG[NMeL]F-NH2) | 0.027 | ~0.0013 | 50 | – | 0% | – | 20% | 0.0025 | 90% | – | – | – | – | – |
| COCC[C@H](NC(=O)[C@H](CC(C)C)N(C)C(=O)CNC(=O)[C@@H](NC(=O)[C@H](Cc1ccc(O)cc1)NC(=O)[C@H](CCCCN)NC(=O)[C@H](CC(=O)O)NC(=O)COCCOCCNC(=O)COCCOCCNC(=O)CC[C@H](NC(=O)CCCCCCCCCCCCCCCCC(=O)O)C(=O)O)[C@@H](C)O)C(N)=O [compound 366, *Asp;Lys;Tyr;Thr;Gly;NmLeu;Metox;NH2] ({C18 diacid-γGlu-AEEA-AEEA}-DKYTG[NMeL][hSer](Me)-NH2) | ~0.104 | ~0.12 | 80 | – | 0% | – | 0% | 0.012 | 100% | – | – | – | – | – |
| CC(C)C[C@@H](C(=O)N[C@@H](Cc1ccc(F)cc1)C(N)=O)N(C)C(=O)CNC(=O)[C@@H](NC(=O)[C@H](Cc1ccc(O)cc1)NC(=O)[C@H](CCCCN)NC(=O)[C@H](CC(=O)O)NC(=O)COCCOCCNC(=O)COCCOCCNC(=O)CC[C@H](NC(=O)CCCCCCCCCCCCCCCCC(=O)O)C(=O)O)C(C)C [compound 369, *Asp;Lys;Tyr;Val;Gly;NmLeu;4-F-Phe;NH2] ({C18 diacid-γGlu-AEEA-AEEA}-DKYVG[NMeL][Phe(4-F)]-NH2) | 0.076 | 0.054 | 80 | ~0.19 | 25% | ~0.25 µM | 40% | 0.0017 | 90% | – | – | – | – | – |
